In patent publication US11534457B2, “Use of dextran sulfate” (priority 2017, dated 2022):

Tests used:
[1] = test system: CASM3C system [coronary artery smooth muscle cells+(IL-1β, TNFα and IFNγ)]; test: BioMAP CASM3C system; format: cell-based, Human
From the text: (§1) In this study LMW-DS was characterized by profiling in the BioMAP® Diversity PLUS panel. The BioMAP® panel consists of human primary cell-based systems designed to model different aspects of the human body in an in vitro format. The 12 systems in the BioMAP® Diversity PLUS panel (Table 32) allow test agent characterization in an unbiased way across a broad set of systems modeling various human disease states. The BioMA®P systems are constructed with one or more primary cell types from healthy human donors, with stimuli, such as cytokines or growth factors, added to capture relevant signaling networks that naturally occur in human tissue or pathological conditions. […]
(§2) Systems are derived from either single cell types or co-culture systems. […] Test agents prepared in either DMSO (small molecules; final concentration 0.1%) or PBS (biologics) are added at the indicated concentrations 1-hr before stimulation, and remain in culture for 24-hrs or as otherwise indicated (48-hrs, MyoF system; 72-hrs, BT system (soluble readouts); 168-hrs, BT system (secreted IgG)). […] Soluble factors from supernatants are quantified using either HTRF® detection, bead-based multiplex immunoassay or capture ELISA. Overt adverse effects of test agents on cell proliferation and viability (cytotoxicity) are detected by sulforhodamine B (SRB) staining, for adherent cells, and alamarBlue® reduction for cells in suspension. […]

[2] = test system: SAg system [PBMC and HUVEC+TCR ligands]; test: BioMAP SAg system; format: cell-based, Human
From the text: as §1, §2

[3] = test system: βIII-tubulin expression in human motor neurons; test: βIII-tubulin immunostaining (differentiation-related protein expression); format: cell-based; conditions: 48 h
Protocol: Neurons were cultured as 40,000 cells per well and Schwann cells 3,000 cells per. Cells were treated after 24 hours. The number of cells per well depended on the growth phenotype, proliferative capacity, etc.
NeuroBlast was pre-warmed to 37° C. Cells were thawed in a 37° C. water bath for no longer than 2 min. 1 ml of media was gently added drop-wise. Cells were resuspended and transferred to a 15 ml tube containing 9 ml of medium. Cells were centrifuged at 200 relative centrifugal force (RCF) for 5 min. Pellet was resuspended in 5 ml of medium and cells were counted with the Cellometer. 40,000 cells per well were seeded in previously coated 96-well plates. Cells were incubated at 37° C. with 5% CO2. Cells were allowed to settle for 24 hours before drug treatment. […]
LMW-DS was prepared in the culture media of choice for each cell line and added to the respective wells in the doses 0.01 and 0.1 mg/ml. For cell survival assays cells were analyzed after 24 and 48 hours in eight identical wells/dose/time point. Differentiation and protein expression assay was analyzed after 48 hours, also in octuplicates. […]
The Acumen cytometer allows the direct cytometric analysis of attached cells without prior detachment. […] The protein content of the cells can also be directly measured and expressed as either ‘total protein content’ or ‘mean protein content’.

[4] = test system: 4H system [HUVEC+(IL-4 and histamine)]; test: BioMAP 4H system; format: cell-based, Human
From the text: as §1, §2

Which results are given for “low molecular weight dextran sulfate [LMW-DS]”?
Decreased biomarker activity ([1]; CASM3C system): VCAM-1, MIG; key inflammation biomarkers including MIG, VCAM, IP-10 and ITAC ([1]; all tested concentrations): decreased over all tested concentrations; Increased biomarker activity [2]: IL-8; βIII-tubulin expression ([3]; 0.01 and 0.1 mg/ml): significantly increased; size of the majority of βIII-tubulin positive cells vs control cultures [3]: smaller; Increased biomarker activity [4]: uPAR
